Measured values: US20250002470A1, “NITROGEN-CONTAINING COMPOUND, PREPARATION METHOD THEREFOR AND APPLICATION THEREOF” (ZHEJIANG AIXPLORER BIOTECH CO., LTD., priority 2021, published 2025)

Target: T1, NLRP3 (Homo sapiens, UniProt Q96P20)
T1 construct: endogenous in cells; host or cells: THP-1 cells (IFN-γ differentiated, LPS primed, ATP stimulated)
Test: IL-1β (interleukin-1β) secretion in IFN-γ-differentiated, LPS/ATP-stimulated THP-1 cells (half inhibition rate of NLRP3)
Assay type: cell-based
Details: IFN-γ 25 ng/mL, LPS 50 ng/mL, ATP 5 mM
Protocol: Remove THP-1 cells from liquid nitrogen and place in a 37° C. water bath until ice melt. Add the cells to 5 mL of warm cell culture medium and centrifuge at 1,000 rpm for 5 min. Discard the supernatant and resuspend and culture in a new cell culture medium.
THP-1 cells are cultured in the culture medium and passaged every 2-3 days.
2.1.1 Add 100 μL of cell suspension per well to the cell plate and incubate the cell plate in a 37° C., 5% CO2 incubator for 24 hours.
2.2.1 Discard the supernatant of IFN-γ differentiation after differentiation treatment. Add 100 μL of serum-free medium containing LPS (final concentration of 50 ng/mL) to the cell plate. The cell plates were incubated in a 37° C., 5% CO2 incubator for 4 h.
Place the cell plate in an incubator at 37° C. and 5% CO2 for 1 hour.
2.2.3 Add 20 μL of 6×ATP per well according to the plate map (final concentration 5 mM) and incubate the cell plate in a 37° C., 5% CO2 incubator for 1 h. Collect the supernatant (60 μL) and store at −20° C.
The capture antibody mAb Mt175 is diluted to 2 μg/mL with PBS (1:250) and added to the cell plate at 15 μL per well. Keep the plate overnight at 4° C.
2.4.1 Discard the coated antibody and wash 4 times with PBST.
2.4.3 Discard the blocking buffer and wash 4 times with PBST.
2.4.4 Add 25 μL of 2.2.3 collected supernatant sample per well and incubate for 2 h at room temperature.
2.4.5 Discard the samples and wash 4 times with PBST.
2.4.6 Add mAb7P10-biotin (concentration 0.5 ug/mL) to blocking buffer, add 15 μL per well to the cell plate, and incubate for 1 hour at room temperature.
2.4.7 Discard the antibody and wash 4 times with PBST.
2.4.8 Streptavidin-HRP was diluted 1:1000 in blocking buffer, 15 μL per well was added to the cell plate, and incubated for 1 hour at room temperature.
2.4.9 Discard streptavidin-HRP and wash 4 times with PBST.
2.4.10 Add 25 μL of HRP substrate (Surmodics-TMBW-0100-01) per well and incubate the cell plate until a blue product appears.
2.4.11 Add 25 μL of stop solution (Surmodics-LSTP-0100-01) per well, and the blue product turns yellow.
2.4.12 Read the cell plate at 450 nm with a microplate reader.

T1 sequence (Q96P20 whole entry): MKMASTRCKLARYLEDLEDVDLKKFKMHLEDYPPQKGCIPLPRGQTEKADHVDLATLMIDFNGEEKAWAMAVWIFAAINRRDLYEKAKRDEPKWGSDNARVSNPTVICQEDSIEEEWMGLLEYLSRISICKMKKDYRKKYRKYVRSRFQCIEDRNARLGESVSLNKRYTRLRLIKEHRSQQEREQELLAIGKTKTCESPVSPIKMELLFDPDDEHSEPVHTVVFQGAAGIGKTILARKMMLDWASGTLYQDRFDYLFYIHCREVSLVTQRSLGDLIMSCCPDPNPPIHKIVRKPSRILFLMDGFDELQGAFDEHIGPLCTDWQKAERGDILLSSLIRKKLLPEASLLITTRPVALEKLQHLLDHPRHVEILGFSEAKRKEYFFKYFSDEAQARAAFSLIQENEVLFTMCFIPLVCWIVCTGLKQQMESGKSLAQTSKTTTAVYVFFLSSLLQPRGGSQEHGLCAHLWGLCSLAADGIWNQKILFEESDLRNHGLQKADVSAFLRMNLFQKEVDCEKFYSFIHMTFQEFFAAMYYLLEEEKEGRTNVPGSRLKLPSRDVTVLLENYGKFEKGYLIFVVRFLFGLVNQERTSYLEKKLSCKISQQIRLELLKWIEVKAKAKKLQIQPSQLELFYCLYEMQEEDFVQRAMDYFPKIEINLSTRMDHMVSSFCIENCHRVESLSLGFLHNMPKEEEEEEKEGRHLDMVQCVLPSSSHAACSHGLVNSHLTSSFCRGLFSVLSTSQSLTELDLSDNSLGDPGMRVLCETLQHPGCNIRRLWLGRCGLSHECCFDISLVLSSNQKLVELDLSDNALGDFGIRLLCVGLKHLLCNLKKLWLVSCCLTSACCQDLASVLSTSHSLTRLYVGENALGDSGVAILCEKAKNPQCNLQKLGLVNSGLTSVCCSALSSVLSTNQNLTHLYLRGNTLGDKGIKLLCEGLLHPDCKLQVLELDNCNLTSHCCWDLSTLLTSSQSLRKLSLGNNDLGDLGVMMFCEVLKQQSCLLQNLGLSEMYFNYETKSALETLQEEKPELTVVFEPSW

Compound	IC50 [µM]
Oc1cc(C(F)(F)F)ccc1-c1nnc(N[C@@H]2CCCC[C@H]2O)c2c1CCC2 [Embodiment 81, 2-(4-(((1R,2R)-2-hydroxycyclohexyl)amino)-6,7-dihydro-5H-cyclopenta[d]pyridazin-1-yl)-5-(trifluoromethyl)phenol]	0.0348
Cc1nc(N[C@@H]2CCCN(C(C)CO)C2)nnc1-c1ncc(C(F)(F)F)cc1O (stereo partly drawn) [Embodiment 54, 2-(3-(((3R)-1-(1-hydroxypropyl-2-yl)piperidin-3-yl)amino)-5-methyl-1,2,4-triazin-6-yl)-5-(trifluoromethyl)pyridin-3-ol]	0.0464
CN1CCC[C@@H](Nc2nnc(-c3ccc(C(F)(F)F)cc3O)c3cocc23)C1 [Embodiment 109]	0.0406
Cc1nc(N[C@@H]2CCCN(CC3(O)CC3)C2)nnc1-c1ccc(C(F)(F)F)cc1O [Embodiment 134]	0.014
Cc1cc(C)c(-c2cnc(N[C@@H]3CCCN(C(C)CO)C3)nn2)c(O)c1 (stereo partly drawn) [Embodiment 22, 2-(3-(((3R)-1-(1-hydroxypropyl-2-yl)piperidin-3-yl)amino)-1,2,4-triazin-6-yl)-3,5-dimethylphenol]	0.024
Cc1cc(C)c(-c2cnc(N[C@@H]3CCCN(CC(=O)O)C3)nn2)c(O)c1 [Embodiment 3, (R)-2-(3-((6-(2-hydroxy-4,6-dimethylphenyl)-1,2,4-triazin-3-yl)amino)piperidin-1-yl)acetic acid]	0.0535
Cc1nc(N[C@@H]2CCCN(C)C2)nnc1-c1ncc(C(F)(F)F)cc1O [Embodiment 9, (R)-2-(5-methyl-3-((1-methylpiperidin-3-yl)amino)-1,2,4-triazin-6-yl)-5-(trifluoromethyl)pyridin-3-ol]	0.067
Cc1cc(C)c(-c2cnc(N[C@@H]3CCCN(CC(=O)N[C@H]4C[C@@](C)(O)C4)C3)nn2)c(O)c1 [Embodiment 25]	0.317
CN1CCC[C@@H](Nc2nnc(-c3ccc(Cl)cc3O)c3ncccc23)C1 [Embodiment 124]	0.0206
Cc1cc(C)c(-c2cnc(N[C@@H]3CCCN(C)C3)nn2)c(O)c1 [Embodiment 108]	0.0109
Cc1cc(C)c(-c2nnc(N[C@@H]3CCCN(C)C3)nn2)c(O)c1 [Embodiment 26, (R)-3,5-Dimethyl-2-(6-((1-methylpiperidin-3)amino)-1,2,4,5-tetraazin-3)phenol]	0.446
Cc1nc(N[C@@H]2CCCN(C3CCC3)C2)nnc1-c1ccc(C(F)(F)F)cc1O [Embodiment 142]	0.0113
CN1CCC[C@@H](Nc2nnc(-c3ccc(C(F)(F)F)cc3O)c3[nH]ccc23)C1 [Embodiment 21]	0.0494
CN1CCC[C@@H](Nc2ncc(-c3c(O)cc(C(F)(F)F)cc3Cl)nn2)C1 [Embodiment 107]	0.0292
Cc1cc(Cl)cc(O)c1-c1nnc(N[C@@H]2CCCN(C)C2)c2ccccc12 [Embodiment 116]	0.0106
Cc1cc(C)c(-c2cnc(NC3CCCN4CCCC34)nn2)c(O)c1 [Embodiment 4, (R)-3,5-dimethyl-2-(9-((1,2,3,5,6,7,8,8a-octahydroindozine-9-yl)amino)-1,2,4-triazin-6-yl)phenol]	0.0321
CN1CCC[C@@H](Nc2nnc(-c3ccc(C(F)(F)F)cc3O)c3c2ccn3C)C1 [Embodiment 114]	0.031
Cc1cc(C)c(-c2cnc(N[C@@H]3CCCN(CC(N)=O)C3)nn2)c(O)c1 [Embodiment 23, (R)-2-(3-((6-(2-hydroxy-4,6-dimethylphenyl)-1,2,4-triazin-3-yl)amino)piperidin-1-yl)acetamide]	0.376
C[C@]1(O)C[C@@H](Nc2nnc(-c3ccc(C(F)(F)F)cc3O)c3ccncc23)C1 [Embodiment 77, 2-(4-(((cis)-3-hydroxy-3-methylcyclobutyl)amino)pyrido[3,4-d]pyridazin-1-yl)-5-(trifluoromethyl)phenol]	0.0194
Cc1cc(C(F)(F)F)cc(O)c1-c1cnc(N[C@@H]2CCCN(C)C2)nn1 [Embodiment 10, (R)-3-methyl-2-(3-((1-methylpiperidin-3-yl)amino)-1,2,4-triazin-6-yl)-5-(trifluoromethyl)phenol]	0.0155
Oc1cc(C(F)(F)F)ccc1-c1nnc(N[C@@H]2CCCC[C@H]2O)c2cccnc12 [Embodiment 71]	0.0928
C[C@]1(O)C[C@@H](Nc2nnc(-c3ccc(C(F)(F)F)cc3O)c3ncccc23)C1 [Embodiment 76, 2-(5-(((cis)-3-hydroxy-3-methylcyclobutyl)amino)pyrido[2,3-d]pyridazin-8-yl)-5-(trifluoromethyl)phenol]	0.0113
CN1CCC[C@@H](Nc2nnc(-c3ccc(C(F)(F)F)cc3O)c3cc[nH]c23)C1 [Embodiment 20]	0.0213
Cc1nc(N[C@@H]2CCCN(CC(N)=O)C2)nnc1-c1ccc(C(F)(F)F)cc1O [Embodiment 42, (R)-2-(3-((6-(2-hydroxy-4-(trifluoromethyl)phenyl)-5-methyl-1,2,4-triazin-3-yl)amino)piperidin-1-yl) acetamide]	0.0627

Now those with a lower IC50, led by results:

IC50 [µM]	Compound
0.0099	Cc1cc(Cl)cc(O)c1-c1nnc(N[C@@H]2CCCN(C)C2)c2ncccc12 [Embodiment 125]
0.0095	Oc1cc(C(F)(F)F)cc(F)c1-c1nnc(N[C@@H]2CCCC[C@H]2O)c2ncccc12 [Embodiment 140]
0.0074	Cc1nc(N[C@@H]2CCCN(CC3CC3)C2)nnc1-c1ccc(C(F)(F)F)cc1O [Embodiment 146]
0.0057	CN1CCC[C@@H](Nc2nnc(-c3ccc(C(F)(F)F)cc3O)c3ccoc23)C1 [Embodiment 18, (R)-2-(7-((1-methylpiperidin-3-yl)amino)furo[2,3-d]pyridazin-4-yl)-5-(trifluoromethyl)phenol]
0.00547	CN1CCC[C@@H](Nc2nnc(-c3ccc(Cl)cc3O)c3cccnc23)C1 [Embodiment 123]
0.0051	Cc1cc(Cl)cc(O)c1-c1nnc(N[C@@H]2CCCN(C)C2)c2ccccc12 [Embodiment 29]
0.005	CN1CCC[C@@H](Nc2nnc(-c3ccc(C(F)(F)F)cc3O)c3cccc(F)c23)C1 [Embodiment 119]
0.0041	CN1CCC[C@@H](Nc2nnc(-c3ccc(C(F)(F)F)cc3O)c3ccc(F)cc23)C1 [Embodiment 120]
0.004	Cc1cc(Cl)cc(O)c1-c1cnc(N[C@@H]2CCCN(C)C2)nn1 [Embodiment 11, (R)-5-chloro-3-methyl-2-(3-((1-methylpiperidin-3-yl)amino)-1,2,4-triazin-6-yl)phenol]
0.0032	OCCN1CCC[C@@H](Nc2nnc(-c3ccc(Cl)cc3O)c3cc(F)ccc23)C1 [Embodiment 154]
0.003	CN1CCC[C@@H](Nc2nnc(-c3ccc(Cl)cc3O)c3ccncc23)C1 [Embodiment 128]
0.0029	COc1ccc2c(-c3ccc(C(F)(F)F)cc3O)nnc(N[C@@H]3CCCN(C)C3)c2c1 [Embodiment 118]
0.0029	CN1CCC[C@@H](Nc2nnc(-c3ccc(C(F)(F)F)cc3O)c3cnccc23)C1 [Embodiment 30, (R)-2-(1-((1-methylpiperidin-3-yl)amino)pyrido[3,4-d]pyridazin-4-yl)-5-(trifluoromethyl)phenol]
0.0022	CN1CCC[C@@H](Nc2nnc(-c3ccc(C(F)(F)F)cc3O)c3ccncc23)C1 [Embodiment 31, (R)-2-(4-((1-methylpiperidin-3-yl)amino)pyrido[3,4-d]pyridazin-1-yl)-5-(trifluoromethyl)phenol]
0.002	CN1CCC[C@@H](Nc2nnc(-c3ccc(C(F)(F)F)cc3O)c3c2C(F)(F)CC3)C1 [Embodiment 112]
0.0018	Cc1nc(N[C@@H]2CCCN(C(C)C)C2)nnc1-c1ccc(C(F)(F)F)cc1O [Embodiment 144]
0.0015	Cc1nc(N[C@@H]2CCCN(C)C2)nnc1-c1ccc(C(F)(F)F)cc1O [Embodiment 8, (R)-2-(5-methyl-3-((1-methylpiperidin-3-yl)amino)-1,2,4-triazin-6-yl)-5-(trifluoromethyl)phenol]
0.0015	Cc1nc(N[C@@H]2CCCN(C3CC3)C2)nnc1-c1ccc(C(F)(F)F)cc1O [Embodiment 141]
0.0014	Cc1ccc(-c2nnc(N[C@@H]3CCCN(C)C3)c3ccccc23)c(O)c1 [Embodiment 27, (R)-5-methyl-2-(4-((1-methylpiperidin-3-yl)amino)phthalazin-1-yl)phenol]
0.0012	CN1CCC[C@@H](Nc2nnc(-c3ccc(C(F)(F)F)cc3O)c3cc(F)ccc23)C1 [Embodiment 121]
0.0011	CN1CCC[C@@H](Nc2nnc(-c3ccc(Cl)cc3O)c3ccccc23)C1 [Embodiment 28, (R)-5-chloro-2-(4-((1-methylpiperidin-3-yl)amino)phthalazin-1-yl)phenol]
0.0009	CCN1CCC[C@@H](Nc2nnc(-c3ccc(C(F)(F)F)cc3O)c(C)n2)C1 [Embodiment 143]
